Measured values as given in ChEMBL document CHEMBL4346716, “Synthesis of novel andrographolide beckmann rearrangement derivatives and evaluation of their HK2-related anti-inflammatory activities” (Eur J Med Chem, 2019).
Calls of active or inactive are those of the source. The rule behind the calls is not given here.

What was measured:
[1] = target: Transcription factor p65 (Mus musculus) (UniProt Q04207); experiment: Inhibition of LPS-stimulated NFkappaB p65 nuclear translocation in mouse RAW264.7 cells at 25 uM pretreated for 2 hrs followed by LPS-stimulation and measured after 12 hrs by DAPI staining based fluorescence microscopic analysis; format: cell-based
[2] = target: T1, Hexokinase-2 (Homo sapiens) (UniProt P52789); experiment: Non competitive inhibition of recombinant human HK2 expressed in Escherichia coli BL21(DE3) assessed as decrease in Vmax using glucose as substrate by Lineweaver-Burk double reciprocal plot analysis
T1 sequence (whole entry): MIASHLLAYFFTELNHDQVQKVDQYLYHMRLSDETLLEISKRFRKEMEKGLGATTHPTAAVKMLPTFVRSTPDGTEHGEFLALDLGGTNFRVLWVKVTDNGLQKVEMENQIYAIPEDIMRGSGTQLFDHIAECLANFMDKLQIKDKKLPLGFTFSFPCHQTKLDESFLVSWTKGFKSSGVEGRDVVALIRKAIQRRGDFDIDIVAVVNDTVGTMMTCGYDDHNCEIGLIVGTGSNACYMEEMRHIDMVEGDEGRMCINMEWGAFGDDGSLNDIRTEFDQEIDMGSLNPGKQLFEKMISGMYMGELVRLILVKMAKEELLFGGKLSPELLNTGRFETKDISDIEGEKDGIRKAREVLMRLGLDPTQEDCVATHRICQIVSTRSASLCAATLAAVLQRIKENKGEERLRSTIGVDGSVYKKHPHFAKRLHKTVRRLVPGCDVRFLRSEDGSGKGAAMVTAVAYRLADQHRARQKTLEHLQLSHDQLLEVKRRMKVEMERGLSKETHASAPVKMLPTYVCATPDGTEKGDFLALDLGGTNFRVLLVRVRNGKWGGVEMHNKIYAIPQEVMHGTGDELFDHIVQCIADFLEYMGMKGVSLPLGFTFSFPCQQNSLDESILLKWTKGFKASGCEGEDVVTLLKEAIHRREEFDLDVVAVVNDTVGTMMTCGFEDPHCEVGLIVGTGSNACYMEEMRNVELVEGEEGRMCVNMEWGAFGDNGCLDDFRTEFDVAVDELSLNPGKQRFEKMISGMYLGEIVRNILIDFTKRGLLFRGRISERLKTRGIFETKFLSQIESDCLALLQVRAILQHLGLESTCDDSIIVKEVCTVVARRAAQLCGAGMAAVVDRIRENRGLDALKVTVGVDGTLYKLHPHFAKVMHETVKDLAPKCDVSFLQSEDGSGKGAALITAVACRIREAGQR

[3] = system: RAW264.7; experiment: Antiinflammatory activity against mouse RAW264.7 cells assessed as inhibition of LPS-induced iNOS protein expression preincubated for 3 hrs followed by LPS addition measured after 24 hrs by Western blot analysis; format: functional, cell-based
[4] = system: RAW264.7; experiment: Antiinflammatory activity against mouse RAW264.7 cells assessed as inhibition of LPS-induced COX2 protein expression preincubated for 3 hrs followed by LPS addition measured after 24 hrs by Western blot analysis; format: functional, cell-based
[5] = system: RAW264.7; experiment: Antiinflammatory activity in mouse RAW264.7 cells assessed as reduction in LPS-induced IL-6 production preincubated for 3 hrs followed by LPS addition measured after 24 hrs by ELISA; format: functional, cell-based
[6] = target: T1, Hexokinase-2 (Homo sapiens); experiment: Non competitive inhibition of recombinant human HK2 expressed in Escherichia coli BL21(DE3) assessed as decrease in Vmax using ATP as substrate by Lineweaver-Burk double reciprocal plot analysis
[7] = system: RAW264.7; experiment: Antiinflammatory activity in mouse RAW264.7 cells assessed as inhibition of LPS-induced NO production preincubated for 3 hrs followed by LPS addition measured after 24 hrs by Griess assay; format: functional, cell-based
[8] = target: T2, Hexokinase-2 (Homo sapiens, UniProt P52789); experiment: Binding affinity to recombinant human HK2 expressed in Escherichia coli BL21(DE3) assessed as dissociation constant measured after 15 mins by microscale thermophoresis assay
T2 sequence (P52789 whole entry): T1 sequence (whole entry)

[9] = system: RAW264.7; experiment: Cytotoxicity against mouse RAW264.7 cells assessed as reduction in cell viability up to 100 uM after 24 hrs by MTT assay; format: cell-based; conditions: raw264.7, 24 h
[10] = system: RAW264.7; experiment: Inhibition of LPS-induced NFkappaB protein expression in mouse RAW264.7 cells at 12.5 to 50 uM preincubated for 3 hrs followed by LPS addition and measured after 24 hrs by Western blot analysis; format: functional, cell-based
[11] = target: T2, Hexokinase-2; experiment: Inhibition of recombinant human HK2 expressed in Escherichia coli BL21(DE3) using glucose as substrate preincubated for 10 mins followed by substrate addition in presence of ATP by G6PDH/NADP coupled assay
[12] = system: RAW264.7; experiment: Antiinflammatory activity in mouse RAW264.7 cells assessed as reduction in LPS-induced IL-1beta production preincubated for 3 hrs followed by LPS addition measured after 24 hrs by ELISA; format: functional, cell-based
[13] = target: T3, Hexokinase-2 (Mus musculus) (UniProt O08528); experiment: Inhibition of HK2 mouse RAW264.7 cells assessed as reduction in LPS-induced glycolysis at 50 uM followed by LPS-stimulation and measured after 4 hrs by seahorse XFe96 analyser based assay; format: cell-based
T3 sequence (whole entry): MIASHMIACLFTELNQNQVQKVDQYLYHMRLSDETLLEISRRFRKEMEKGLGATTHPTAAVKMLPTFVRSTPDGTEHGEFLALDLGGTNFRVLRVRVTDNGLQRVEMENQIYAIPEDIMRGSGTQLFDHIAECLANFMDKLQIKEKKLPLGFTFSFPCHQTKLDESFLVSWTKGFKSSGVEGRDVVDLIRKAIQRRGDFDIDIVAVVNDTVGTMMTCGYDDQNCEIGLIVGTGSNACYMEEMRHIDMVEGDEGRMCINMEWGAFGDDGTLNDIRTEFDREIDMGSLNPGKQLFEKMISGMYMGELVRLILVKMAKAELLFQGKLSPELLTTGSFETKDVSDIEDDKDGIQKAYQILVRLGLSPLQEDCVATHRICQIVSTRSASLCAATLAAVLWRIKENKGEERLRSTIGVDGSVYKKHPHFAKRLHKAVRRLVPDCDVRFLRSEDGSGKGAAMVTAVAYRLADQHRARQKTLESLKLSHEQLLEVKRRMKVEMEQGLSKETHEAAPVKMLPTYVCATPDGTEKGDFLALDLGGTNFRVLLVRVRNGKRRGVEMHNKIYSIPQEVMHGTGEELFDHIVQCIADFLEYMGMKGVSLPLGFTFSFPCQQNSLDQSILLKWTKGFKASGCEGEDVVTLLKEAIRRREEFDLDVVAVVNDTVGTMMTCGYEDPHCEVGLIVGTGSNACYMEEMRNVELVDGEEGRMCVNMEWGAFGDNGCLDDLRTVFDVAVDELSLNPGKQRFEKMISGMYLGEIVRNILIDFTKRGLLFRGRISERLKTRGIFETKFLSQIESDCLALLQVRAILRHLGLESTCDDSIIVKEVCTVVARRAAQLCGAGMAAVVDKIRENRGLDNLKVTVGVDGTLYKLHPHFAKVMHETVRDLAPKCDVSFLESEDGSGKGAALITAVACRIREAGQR

Transcription factor p65 (Mus musculus), sequence (Q04207 whole entry): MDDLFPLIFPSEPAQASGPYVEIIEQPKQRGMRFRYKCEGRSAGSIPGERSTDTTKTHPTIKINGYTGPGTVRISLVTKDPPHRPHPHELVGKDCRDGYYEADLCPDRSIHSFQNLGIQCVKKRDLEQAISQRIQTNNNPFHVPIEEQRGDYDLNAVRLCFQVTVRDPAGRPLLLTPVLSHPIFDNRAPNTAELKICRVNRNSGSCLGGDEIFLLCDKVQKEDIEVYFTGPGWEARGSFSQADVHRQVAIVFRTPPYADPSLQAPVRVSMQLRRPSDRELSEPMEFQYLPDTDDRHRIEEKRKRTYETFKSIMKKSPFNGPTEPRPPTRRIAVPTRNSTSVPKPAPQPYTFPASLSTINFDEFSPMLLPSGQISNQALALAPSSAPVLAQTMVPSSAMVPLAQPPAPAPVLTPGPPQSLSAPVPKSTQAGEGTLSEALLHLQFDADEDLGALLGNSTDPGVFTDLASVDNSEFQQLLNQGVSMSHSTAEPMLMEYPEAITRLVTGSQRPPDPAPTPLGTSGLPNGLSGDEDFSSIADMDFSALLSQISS

- inhibition [1]: Active
- inhibition [2]: Dose-dependent effect
- inhibition [6]: Dose-dependent effect
- IC50 [7]: 22.4 µM
- Kd [8]: 5.12 µM
- IC50 [11]: 9.36 µM
- inhibition [13]: Active
SMILES: C=C1CC[C@H]2[C@@](C)(CCC(=O)N[C@@]2(C)COC(=O)CCCC[C@@H]2CCSS2)[C@@H]1/C=C/C1=CCOC1=O
- inhibition [3]: Dose-dependent effect
- inhibition [4]: Dose-dependent effect
- inhibition [5]: Dose-dependent effect
- Activity [9]: Non-Toxic
- inhibition [10]: Active
- inhibition [12]: Dose-dependent effect
